Laboratory results taken from patent US20260242768A1, “ACETYL-COENZYME A CARBOXYLASE MUTANTS” (CIBUS US LLC, priority 2023, published 2026).

How the values were obtained:
[1] = test system: O. sativa ACCase; assay: Growth of Saccharomyces cerevisiae pseudodiploid acc1Δ strains carrying wild-type or mutant OsACCase plasmids, streaked onto plates with increasing concentrations of clethodim (Examples 5, 7, 10; Tables 8, 12); format: cell-based, Oryza sativa; design: key to relative growth phenotype, 0.5 mM clethodim / relative growth phenotype, 1 mM clethodim / relative growth phenotype, 2 mM clethodim / relative growth phenotype, highGal / relative growth phenotype, lowGal / relative growth phenotype, 0.05 mM clethodim / relative growth phenotype, 0.1 mM clethodim / relative growth phenotype, 0.25 mM clethodim: +++ high growth; ++ moderate growth; + low to negligible growth; (−) some cell debris, no growth; − no growth or cell debris; settings: for relative growth phenotype, 0.05 mM clethodim: plate with 0.05 mM clethodim; for relative growth phenotype, 0.05 mM clethodim / relative growth phenotype, 0.1 mM clethodim / relative growth phenotype, 0.25 mM clethodim / relative growth phenotype, 0.5 mM clethodim / relative growth phenotype, 1 mM clethodim / relative growth phenotype, 2 mM clethodim: galactose 0.01%; for relative growth phenotype, 0.1 mM clethodim: plate with 0.1 mM clethodim; for relative growth phenotype, 0.25 mM clethodim: plate with 0.25 mM clethodim; for relative growth phenotype, 0.5 mM clethodim: plate with 0.5 mM clethodim; for relative growth phenotype, 1 mM clethodim: plate with 1 mM clethodim; for relative growth phenotype, 2 mM clethodim: plate with 2 mM clethodim; for relative growth phenotype, highGal / relative growth phenotype, lowGal: yeast acc1Δ strain with OsACCase plasmid, no clethodim; for relative growth phenotype, highGal: high galactose plate; for relative growth phenotype, lowGal: low galactose plate
From the text: Mutations at position N2097S and V2098A were combined to determine if point mutations at both positions gave increased resistance compared to either single point mutation. Each of these respective mutations (N2097S, V2098A and N2097S/V2098A) were generated by standard methods and introduced into a Saccharomyces cerevisiae pseudodiploid acc1Δ strain with a plasmid containing wild-type O. sativa ACCase gene. Once each of these mutations were introduced by recombination mediated mutagenesis, the OsACCase wild-type plasmid was removed, and mutation strains were confirmed by sequencing. The three strains, along with a series of controls including a WT strain (negative control), an I1781L mutant strain, and a D2078G mutant strain (positive control), were streaked onto plates with increasing concentrations of clethodim. […] These observations argue that N2097S is an enhancer of V2098A tolerance.
Edits at position S1784N and A1785G were combined to determine if point mutations at both of these two positions gave increased resistance compared to either single point mutation. Each of these respective mutations (S1784N, A1785G and S1784N/A1785G) were generated by standard methods and introduced into a Saccharomyces cerevisiae pseudodiploid acc1Δ strain with a plasmid containing wild-type O. sativa ACCase gene. Once each of these mutations were introduced by recombination mediated mutagenesis, the OsACCase wild-type plasmid was removed, and mutation strains were confirmed by sequencing. The three strains, along with a series of controls including a WT strain (negative control), an I1781L mutant strain, a D2078G mutant strain (positive control), and a V2075L mutant strain were streaked onto plates with increasing concentrations of clethodim.
Each of these respective mutations (D2078G, P2083T, D2078G/P2083T) were generated by standard methods and introduced into a Saccharomyces cerevisiae pseudodiploid acc14 strain with a plasmid containing the wild-type O. sativa ACCase gene. Once plasmids bearing each of these mutations, introduced using recombination-mediated mutagenesis, the OsACCase wild-type plasmid was removed, and strains bearing each mutant plasmid were confirmed by sequencing. The three strains, along with a series of controls including a wild-type strain (negative control), an I1781L mutant strain (medium control), and a pre-existing D2078G mutant strain (positive control) were streaked onto plates with increasing concentrations of clethodim.

[2] = test system: rice (Oryza sativa) plastidal ACCase; assay: Clethodim tolerance of rice ACCase mutations, yeast complementation assay (Examples 1-3); format: cell-based; settings: for clethodim tolerance: ACCase mutation tested with the herbicide clethodim; for clethodim tolerance of combined mutations compared with single mutation(s) or parent mutant: double/triple mutants vs single mutations
From the text: Joachimiak M. et al Proc Natl Acad Sci U.S.A. 1997 Sep. 2; 94 (18): 9990-5 and WO/2013/074524 and WO/2013/074524 each describe methods to complement a yeast (Saccharomyces cerevisiae) strain lacking the native acc1 gene with either a wt or mutated form of a chimeric plastidal ACCase gene from a plant such as rice (Oryza sativa). Methods to introduce one or more mutations listed herein into the chimeric ACCase gene and subsequently complement the acc1 lacking yeast strain are well known by an individual skilled in the art. In the art assays are known for measuring tolerance of a mutated plant ACCase gene versus a herbicide that is a member of the aryloxyphenoxypropanoate, cyclohexanedione, and/or phenylpyrazoline families of herbicides such as clethodim, sethoxydim, fluazifop, haloxyfop, quizalofop, and pinoxaden (Joachimiak M. et al Proc Natl Acad Sci U.S.A. 1997 Sep. 2; 94 (18): 9990-5 and WO/2013/074524).
A library of random mutations in the rice (Oryza sativa) plastidal ACCase gene was generated and screened for clethodim tolerant clones using a yeast complementation assay.

A1785G: mutated ACCase, numbering per SEQ ID NO: 2
relative growth phenotype, 0.05 mM clethodim [1]: (−)
relative growth phenotype, 0.1 mM clethodim [1]: (−)
relative growth phenotype, 0.25 mM clethodim [1]: −
relative growth phenotype, 0.5 mM clethodim [1]: −
relative growth phenotype, 1 mM clethodim [1]: −
relative growth phenotype, 2 mM clethodim [1]: −
relative growth phenotype, highGal [1]: +++
relative growth phenotype, lowGal [1]: +++
clethodim tolerance [2]: no detectable clethodim tolerance

N2097S: mutated ACCase, numbering per SEQ ID NO: 2
clethodim tolerance compared to the wild-type (wt) control strain ([1]; Example 5, plates with increasing clethodim, 0.01% galactose): does not produce detectable clethodim tolerance
clethodim tolerance [2]: neither the N2097S nor the N2097D single mutations provide detectable clethodim tolerance
effect on clethodim tolerance when combined with D2078G, V2075L or V2098A ([2]; combined with either D2078G, V2075L or V2098A): further increases clethodim tolerance

S1784N: mutated ACCase, numbering per SEQ ID NO: 2
relative growth phenotype, 0.05 mM clethodim [1]: +++
relative growth phenotype, 0.1 mM clethodim [1]: +++
relative growth phenotype, 0.25 mM clethodim [1]: +
relative growth phenotype, 0.5 mM clethodim [1]: (−)
relative growth phenotype, 1 mM clethodim [1]: (−)
relative growth phenotype, 2 mM clethodim [1]: (−)
relative growth phenotype, highGal [1]: +++
relative growth phenotype, lowGal [1]: +++
clethodim tolerance [2]: measurable clethodim tolerance

M1974T-D2078G: double mutant ACCase
clethodim tolerance of combined mutations compared with single mutation(s) or parent mutant [2]: tolerance that is similar to the corresponding original triple mutants

L1543V: mutated ACCase, numbering per SEQ ID NO: 2
clethodim tolerance [2]: measurable clethodim tolerance

L1543V-D1681E: double mutant ACCase
clethodim tolerance of combined mutations compared with single mutation(s) or parent mutant [2]: increased clethodim tolerance compared to any one mutation alone

L1818I: mutated ACCase, numbering per SEQ ID NO: 2
clethodim tolerance [2]: measurable clethodim tolerance

M1975T: mutated ACCase, numbering per SEQ ID NO: 2
effect on clethodim tolerance of the single D2078G mutation ([2]; mutation added to D2078G): neither M1975T nor M2257I provide detectable clethodim tolerance increase to the single D2078G mutation

V2098A/N2097D: double mutant ACCase
clethodim tolerance of combined mutations compared with single mutation(s) or parent mutant [2]: either less, or no more, tolerant than the single D2078G, V2075L and V2098A mutations

C2088M: mutated ACCase, numbering per SEQ ID NO: 2
clethodim tolerance [2]: produces measurable tolerance
